In US10695315B2, “Composition comprising avermectin compounds without gelling agents” (Nestlé Skin Health SA, priority 2016, dated 2020):

Assay: Physical stability of the composition over time
Type: physicochemical
Settings: in composition 2, over time (three months, 5° C. and RT)
Procedure: “Physical stability” means that the composition meets the acceptance criteria for appearance, physical attributes and functionality test (e.g. color, phase separation, dose delivery per actuation).
The table below represents physical stability of the composition 2 according to the invention at 5° C. and room temperature (RT) during three months.

## ivermectin
  Ivermectin solubilized state, crystals formation: remains solubilized over time, no crystals formation
